In patent publication US12594276B2, “Inhibitors of human immunodeficiency virus replication” (ViiV Healthcare UK (No.5) Limited, priority 2024, dated 2026):

Tests used:
[1] = Compound cytotoxicity, XTT-based colorimetric assay; assay type: cell-based; conditions: human; uninfected MT2 cells, day 4, XTT; read-out: CC50
Procedure: Compound cytotoxicity and the corresponding CC50 values were determined using the same protocol as described in the antiviral assay except that uninfected cells were used. Cytotoxicity was assessed on day 4 in uninfected MT2 cells by using an XTT (2,3-bis[2-Methoxy-4-nitro-5-sulfophenyl]-2H-tetrazolium-5-carboxyanilide inner salt)-based colorimetric assay (Sigma-Aldrich, St Louis, Mo).

[2] = test system: recombinant NL4-3 virus (nef section replaced with Renilla luciferase gene) in MT-2 cells; assay: HIV cell culture assay (antiviral activity, luciferase readout); assay type: cell-based; conditions: Renilla, NL43, MT-2 cells infected for 4-5 days with recombinant NL4-3 Renilla luciferase virus
Procedure: HIV cell culture assay—MT-2 cells, 293T cells and the proviral DNA clone of NL4-3 virus were obtained from the NIH AIDS Research and Reference Reagent Program. MT-2 cells were propagated in RPMI 1640 media supplemented with 10% heat inactivated fetal bovine serum (FBS), […]. The 293T cells were propagated in DMEM media supplemented with 10% heat inactivated FBS, […]. A recombinant NL4-3 proviral clone, in which a section of the nef gene was replaced with the Renilla luciferase gene, was used to make the reference virus used in these studies. The recombinant virus was prepared through transfection of the recombinant NL4-3 proviral clone into 293T cells using Transit-293 Transfection Reagent from Mirus Bio LLC (Madison, WI). Supernatant was harvested after 2-3 days and the amount of virus present was titered in MT-2 cells using luciferase enzyme activity as a marker by measuring luciferase enzyme activity. Luciferase was quantitated using the EnduRen Live Cell Substrate from Promega (Madison, WI). Antiviral activities of compounds toward the recombinant virus were quantified by measuring luciferase activity in MT-2 cells infected for 4-5 days with the recombinant virus in the presence of serial dilutions of the compound.
The 50% effective concentration (EC50) was calculated by using the exponential form of the median effect equation where (Fa)=1/[1+(ED50/drug conc.)m](Johnson V A, Byington R T. Infectivity Assay. In Techniques in HIV Research. ed. Aldovini A, Walker B D. 71-76. New York: Stockton Press. 1990). Curve fitting and analysis were performed with ActivityBase XE Runner software version 9.1.0.4 using model 203 (ID Business Solutions, LTD, Guildford, UK).

Row | SMILES | CC50 at 4 days [1] | EC50 [2]
1 | CO[C@@H](C)CNC(=O)Cn1nc(NS(C)(=O)=O)c2c(Cl)ccc(-n3c([C@H](Cc4cc(F)cc(F)c4)NC(=O)Cn4nc(C5CC5)c5c4C[C@@H]4C[C@H]54)nc4nc(C5CCC(F)(F)CC5)cc(C)c4c3=O)c21 (atropisomer, axis not shown; (P)) [Example 395, N-[(1S)-1-[(3P)-3-[4-chloro-3-methanesulfonamido-1-({[(2S)-2-methoxypropyl]carbamoyl}methyl)-1H-indazol-7-yl]-7-(4,4-difluorocyclohexyl)-5-methyl-4-oxo-3H,4H-pyrido[2,3-d]pyrimidin-2-yl]-2-(3,5-difluorophenyl)ethyl]-2-[(2S,4S)-9-cyclopropyl-7,8-diazatricyclo[4.3.0.0^2,^4]nona-1(6),8-dien-7-yl]acetamide] | > 20 nM | 0.034 nM
2 | CS(=O)(=O)Nc1nn(CCN2C[C@H](F)C[C@H](F)C2)c2c(-n3c([C@H](Cc4cc(F)cc(F)c4)NC(=O)Cn4nc(C(F)F)c5c4C(F)(F)[C@@H]4C[C@H]54)nc4nc(C5CCC(F)(F)CC5)cc(CF)c4c3=O)ccc(Cl)c12 (atropisomer, axis not shown; (P)) [Example 512, N-[(1S)-1-[(3P)-3-(4-chloro-1-{2-[(3R,5S)-3,5-difluoropiperidin-1-yl]ethyl}-3-methanesulfonamido-1H-indazol-7-yl)-7-(4,4-difluorocyclohexyl)-5-(fluoromethyl)-4-oxo-3H,4H-pyrido[2,3-d]pyrimidin-2-yl]-2-(3,5-difluorophenyl)ethyl]-2-[(2S,4R)-9-(difluoromethyl)-5,5-difluoro-7,8-diazatricyclo[4.3.0.0^2,^4]nona-1(6),8-dien-7-yl]acetamide] | > 20 nM | 0.006 nM
3 | COCCCn1nc(NS(C)(=O)=O)c2c(Cl)ccc(-n3c([C@H](Cc4cc(F)cc(F)c4)NC(=O)Cn4nc(C(F)F)c5c4C(F)(F)[C@@H]4C[C@H]54)nc4nc(C5CCC(F)(F)CC5)cc(NCCc5ccn(C)n5)c4c3=O)c21 (atropisomer, axis not shown; (P)) [Example 543, N-[(1S)-1-[(3P)-3-[4-chloro-3-methanesulfonamido-1-(3-methoxypropyl)-1H-indazol-7-yl]-7-(4,4-difluorocyclohexyl)-5-{[2-(1-methyl-1H-pyrazol-3-yl)ethyl]amino}-4-oxo-3H,4H-pyrido[2,3-d]pyrimidin-2-yl]-2-(3,5-difluorophenyl)ethyl]-2-[(2S,4R)-9-(difluoromethyl)-5,5-difluoro-7,8-diazatricyclo[4.3.0.0^2,^4]nona-1(6),8-dien-7-yl]acetamide] | > 20 nM | 0.014 nM
4 | Cc1cc(C2(F)CCC(F)(F)CC2)nc2nc([C@H](Cc3cc(F)cc(F)c3)NC(=O)Cn3nc(C4CC4)c4c3C[C@@H]3C[C@H]43)n(-c3ccc(Cl)c4c(NS(C)(=O)=O)nn([C@H](C)CN5C[C@@H](C)O[C@@H](C)C5)c34)c(=O)c12 (relative stereo) [Example 730, N-[(1S)-1-[(3P)-3-{4-chloro-1-[(2R)-1-[(2R,6S)-2,6-dimethylmorpholin-4-yl]propan-2-yl]-3-methanesulfonamido-1H-indazol-7-yl}-5-methyl-4-oxo-7-(1,4,4-trifluorocyclohexyl)-3H,4H-pyrido[2,3-d]pyrimidin-2-yl]-2-(3,5-difluorophenyl)ethyl]-2-[(2R*,4R*)-9-cyclopropyl-7,8-diazatricyclo[4.3.0.0^2,^4]nona-1(6),8-dien-7-yl]acetamide] | > 20 nM | 0.032 nM
5 | COCCCn1nc(NS(C)(=O)=O)c2c(Cl)ccc(-n3c([C@H](Cc4cc(F)cc(F)c4)NC(=O)Cn4nc(C(F)F)c5c4C(F)(F)[C@@H]4C[C@H]54)nc4nc(C5CCC(F)(F)CC5)cc(CN5CC(C)(C)OC(C)(C)C5)c4c3=O)c21 (atropisomer, axis not shown; (P)) [Example 471, N-[(1S)-1-[(3P)-3-[4-chloro-3-methanesulfonamido-1-(3-methoxypropyl)-1H-indazol-7-yl]-7-(4,4-difluorocyclohexyl)-4-oxo-5-[(2,2,6,6-tetramethylmorpholin-4-yl)methyl]-3H,4H-pyrido[2,3-d]pyrimidin-2-yl]-2-(3,5-difluorophenyl)ethyl]-2-[(2S,4R)-9-(difluoromethyl)-5,5-difluoro-7,8-diazatricyclo[4.3.0.0^2,^4]nona-1(6),8-dien-7-yl]acetamide] | > 20 nM | 0.038 nM
6 | COCCCn1nc(NS(C)(=O)=O)c2c(Cl)ccc(-n3c([C@H](Cc4cc(F)cc(F)c4)NC(=O)Cn4nc(C(F)F)c5c4C(F)(F)[C@@H]4C[C@H]54)nc4nc(C5CCC(F)(F)CC5)cc(CN5CC(C(F)(F)F)C5)c4c3=O)c21 (atropisomer, axis not shown; (P)) [Example 605, N-[(1S)-1-[(3P)-3-[4-chloro-3-methanesulfonamido-1-(3-methoxypropyl)-1H-indazol-7-yl]-7-(4,4-difluorocyclohexyl)-4-oxo-5-{[3-(trifluoromethyl)azetidin-1-yl]methyl}-3H,4H-pyrido[2,3-d]pyrimidin-2-yl]-2-(3,5-difluorophenyl)ethyl]-2-[(2S,4R)-9-(difluoromethyl)-5,5-difluoro-7,8-diazatricyclo[4.3.0.0^2,^4]nona-1(6),8-dien-7-yl]acetamide] | > 20 nM | 0.018 nM
7 | Cc1cc(C2CCC(F)(F)CC2)nc2nc([C@H](Cc3cc(F)cc(F)c3)NC(=O)Cn3nc(C4CC4)c4c3C[C@@H]3C[C@H]43)n(-c3ccc(Cl)c4c(NS(C)(=O)=O)nn(CC(=O)NCCOC(C)C)c34)c(=O)c12 (atropisomer, axis not shown; (P)) [Example 393, N-[(1S)-1-[(3P)-3-[4-chloro-3-methanesulfonamido-1-({[2-(propan-2-yloxy)ethyl]carbamoyl}methyl)-1H-indazol-7-yl]-7-(4,4-difluorocyclohexyl)-5-methyl-4-oxo-3H,4H-pyrido[2,3-d]pyrimidin-2-yl]-2-(3,5-difluorophenyl)ethyl]-2-[(2S,4S)-9-cyclopropyl-7,8-diazatricyclo[4.3.0.0^2,^4]nona-1(6),8-dien-7-yl]acetamide] | > 20 nM | 0.035 nM
8 | CS(=O)(=O)Nc1nn(CCN2C[C@H](F)C[C@H](F)C2)c2c(-n3c([C@H](Cc4cc(F)cc(F)c4)NC(=O)Cn4nc(C(F)F)c5c4C(F)(F)[C@@H]4C[C@H]54)nc4nc(C5CCC(F)(F)CC5)cc(CN5CC(F)(F)C5)c4c3=O)ccc(Cl)c12 (atropisomer, axis not shown; (P)) [Example 620, N-[(1S)-1-[(3P)-3-(4-chloro-1-{2-[(3R,5S)-3,5-difluoropiperidin-1-yl]ethyl}-3-methanesulfonamido-1H-indazol-7-yl)-5-[(3,3-difluoroazetidin-1-yl)methyl]-7-(4,4-difluorocyclohexyl)-4-oxo-3H,4H-pyrido[2,3-d]pyrimidin-2-yl]-2-(3,5-difluorophenyl)ethyl]-2-[(2S,4R)-9-(difluoromethyl)-5,5-difluoro-7,8-diazatricyclo[4.3.0.0^2,]nona-1(6),8-dien-7-yl]acetamide] |  | 0.007 nM
9 | Cc1cc(C2CCC(F)(F)CC2)nc2nc([C@H](Cc3cc(F)cc(F)c3)NC(=O)Cn3nc(C(F)F)c4c3C[C@@H]3C[C@H]43)n(-c3ccc(Cl)c4c(NS(C)(=O)=O)nn(CCN5CC(C)(C)OC(C)(C)C5)c34)c(=O)c12 (atropisomer, axis not shown; (P)) [Example 611, N-[(1S)-1-[(3P)-3-{4-chloro-3-methanesulfonamido-1-[2-(2,2,6,6-tetramethylmorpholin-4-yl)ethyl]-1H-indazol-7-yl}-7-(4,4-difluorocyclohexyl)-5-methyl-4-oxo-3H,4H-pyrido[2,3-d]pyrimidin-2-yl]-2-(3,5-difluorophenyl)ethyl]-2-[(2S,4S)-9-(difluoromethyl)-7,8-diazatricyclo[4.3.0.0^2,^4]nona-1(6),8-dien-7-yl]acetamide] |  | 0.025 nM
10 | Cc1cc(C2CCC(F)(F)CC2)nc2nc([C@H](Cc3cc(F)cc(F)c3)NC(=O)Cn3nc(C(F)(F)F)c4c3C(F)(F)[C@@H]3C[C@H]43)n(-c3ccc(Cl)c4c(NS(C)(=O)=O)nn(CCN5CC(C)(C)OC(C)(C)C5)c34)c(=O)c12 (atropisomer, axis not shown; (P)) [Example 609, N-[(1S)-1-[(3P)-3-{4-chloro-3-methanesulfonamido-1-[2-(2,2,6,6-tetramethylmorpholin-4-yl)ethyl]-1H-indazol-7-yl}-7-(4,4-difluorocyclohexyl)-5-methyl-4-oxo-3H,4H-pyrido[2,3-d]pyrimidin-2-yl]-2-(3,5-difluorophenyl)ethyl]-2-[(2S,4R)-5,5-difluoro-9-(trifluoromethyl)-7,8-diazatricyclo[4.3.0.0^2,^4]nona-1(6),8-dien-7-yl]acetamide] |  | 0.033 nM
